The values that follow are results of earlier work, collected in PubChem BioAssay AID1259409 (Chemical Carcinogenesis Research Information System (CCRIS), 2018).

The test system of the series is rodent chemically induced tumor inhibition, incidence and multiplicity. The series is described as follows: CCRIS tumor inhibitor studies.

`CC1=C(/C=C/C(C)=C/C=C/C(C)=C/C=C/C=C(C)/C=C/C=C(C)/C=C/C2=C(C)CCCC2(C)C)C(C)(C)CCC1`: the “tumour outcome (control, treated, inhibition, significance)” value is recorded as 69%, 25%, 64%, not calculated (Carcinogen: 7,12-DIMETHYLBENZ[A]ANTHRACENE, 57-97-6, Dose [Inhibitor]: 0, 400 NMOL IN 200 µL ACETONE 2/WK BEGINNING 1 WK POST CARCINOGEN DOSE APPLIED SIMULTANEOUSLY WITH PROMOTER FOR 20 WK (S, Route [Inhibitor]: DERMAL, Species: MOUSE, Strain/Sex: ICR/?, Target Tissue: Type of Lesion: SKIN: PAPILLOMA, Dose [Carcinogen]: 100 UG ONCE, Promoter: 12-O-TETRADECANOYLPHORBOL-13-ACETATE, 16561-29-8); 7/25 (28%), 8/37 (22%), 21%, not calculated (Carcinogen: 7,12-DIMETHYLBENZ[A]ANTHRACENE, 57-97-6, Dose [Inhibitor]: 0, 1430 IU/KG IN 100 µL PEANUT OIL 5 D/WK BEGINNING 1 WK POST CARCINOGEN DOSE AND CONTINUING FOR DURATION OF STUDY (STUD, Route [Inhibitor]: GAVAGE, Species: MOUSE, Strain/Sex: HRA/SKH/FEMALE, Target Tissue: Type of Lesion: SKIN: CARCINOMA, Dose [Carcinogen]: 10 NMOL IN 50 µL ACETONE ONCE); 20/20 (100%), 11/20 (55%), 45%, not calculated (Carcinogen: 7,12-DIMETHYLBENZ[A]ANTHRACENE, 57-97-6, Dose [Inhibitor]: 140 UG (1.5 MG/KG BW) IN 0.4 ML MINERAL OIL 3/WK FOR 28 WK (STUDY DURATION: 28 WK), Route [Inhibitor]: ORAL, Species: HAMSTER, Strain/Sex: SYRIAN/MALE, Target Tissue: Type of Lesion: SKIN: CARCINOMA, Dose [Carcinogen]: 0.1% IN HEAVY MINERAL OIL APPLIED TO BUCCAL POUCH 3/WK FOR 28 WK, Promoter: NONE USED); 20/28 (71%), 20/30 (67%), 6%, not significant (Carcinogen: 7,12-DIMETHYLBENZ[A]ANTHRACENE, 57-97-6, Dose [Inhibitor]: 250 MG/KG IN DIET BEGINNING 6 WK PRIOR TO CARCINOGEN DOSE AND CONTINUING FOR 21-22 WK POST CARCINOGEN DOSE (STUDY DURATI, Route [Inhibitor]: ORAL, Species: RAT, Strain/Sex: SPRAGUE-DAWLEY/MALE, Target Tissue: Type of Lesion: SALIVARY GLAND: TUMOR, Dose [Carcinogen]: 1 MG IN 20 µL OLIVE OIL INJECTED INTO SUBMANDIBULAR GLAND ONCE, Promoter: NONE USED); 56%, 38%, 32%, not calculated (Carcinogen: BENZO[A]PYRENE, 50-32-8, Dose [Inhibitor]: 0, 0.5 G/G OF DIET FOR 6 WK (STUDY DURATION: 9 WK), Route [Inhibitor]: ORAL, Species: MOUSE, Strain/Sex: NIGP(S)/FEMALE, Target Tissue: Type of Lesion: LUNG: ADENOMA, Dose [Carcinogen]: 0.5 MG INJECTED IN THE SCAPULAR REGION OF NEWBORN MICE ONCE, Promoter: NONE USED); 37%, 38%, -3%, not calculated (Carcinogen: BENZO[A]PYRENE, 50-32-8, Dose [Inhibitor]: 0, 0.5 G/G OF DIET FOR 6 WK (STUDY DURATION: 9 WK), Route [Inhibitor]: ORAL, Species: MOUSE, Strain/Sex: NIGP(S)/MALE, Target Tissue: Type of Lesion: LUNG: ADENOMA, Dose [Carcinogen]: 0.5 MG INJECTED IN THE SCAPULAR REGION OF NEWBORN MICE ONCE, Promoter: NONE USED). For the same molecule, the “tumour outcome (control, treated, inhibition, significance)” value is listed as 20/20 (100%), 3/20 (15%), 85%, p<0.001 (Carcinogen: BENZO[A]PYRENE, 50-32-8, Dose [Inhibitor]: 0, 4.7 MICROMOLAR/D IN 0.1 ML PEANUT OIL BEGINNING 2 WK PRIOR TO CARCINOGEN TREATMENT AND CONTINUING TO 2 WK POST CARCIN, Route [Inhibitor]: GAVAGE, Species: MOUSE, Strain/Sex: SWISS/FEMALE, Target Tissue: Type of Lesion: FORESTOMACH: TUMOR, Dose [Carcinogen]: 1 MG 2/WK IN 0.1 ML PEANUT OIL FOR 4 WK, Promoter: NONE USED); “@65%, @55%, 15%, p<0.05” (Carcinogen: BENZO[A]PYRENE, 50-32-8, Dose [Inhibitor]: 2.5 MG/D IN DIET FOLLOWED 1 MO LATER BY 25 MG/0.250 KG BW BY GAVAGE 2/WK 2 HR PRIOR TO CARCINOGEN DOSE (STUDY DURATION:, Route [Inhibitor]: ORAL, GAVAGE, Species: MOUSE, Strain/Sex: SWISS/FEMALE, Target Tissue: Type of Lesion: SKIN: PAPILLOMA, SQUAMOUS EPITHELIOMA, Dose [Carcinogen]: 100 UG IN ACETONE 2/WK BEGINNING 1 MO AFTER AGENT DOSE AND CONTINUING FOR DURATION OF STUDY, Promoter: NONE USED); “@93%, @40%, @57%, not calculated” (Carcinogen: BENZO[A]PYRENE, 50-32-8, UV IRRADIATION, Carcinogen: BENZO[A]PYRENE, 50-32-8, UV IRRADIATION, Dose [Inhibitor]: 2.5 MG/D IN DIET FOLLOWED 1 MO LATER BY 25 MG/0.250 KG BW BY GAVAGE 2/WK GIVEN 2 HR PRIOR TO CARCINOGEN DOSE (STUDY DURA, Route [Inhibitor]: ORAL, GAVAGE, Species: MOUSE, Strain/Sex: SWISS/FEMALE, Target Tissue: Type of Lesion: SKIN: PAPILLOMA, SQUAMOUS EPITHELIOMA, Dose [Carcinogen]: 100 UG IN ACETONE 2/WK BEGINNING 1 MO AFTER AGENT DOSE AND CONTINUING FOR DURATION OF STUDY PLUS UV IRRADIATION (5890 ER, Promoter: NONE USED); 6/29 (21%), 5/30 (17%), 20%, not calculated (Carcinogen: DIESEL EXHAUST PARTICLES, Dose [Inhibitor]: 0, 0.02% IN BASAL DIET FOR DURATION FO STUDY (STUDY DURATION: 12 MO), Route [Inhibitor]: ORAL, Species: MOUSE, Strain/Sex: ICR/MALE, Target Tissue: Type of Lesion: LYMPHATIC SYSTEM: LYMPHOMA, Dose [Carcinogen]: 0.2 MG 1/WK FOR 10 WK, Promoter: NONE USED); 3/29 (10%), 2/30 (7%), 30%, not calculated (Carcinogen: DIESEL EXHAUST PARTICLES, Dose [Inhibitor]: 0, 0.02% IN BASAL DIET FOR DURATION OF STUDY (STUDY DURATION: 12 MO), Route [Inhibitor]: ORAL, Species: MOUSE, Strain/Sex: ICR/ MALE, Target Tissue: Type of Lesion: LYMPHATIC SYSTEM: LYMPHOMA, Dose [Carcinogen]: 0.1 MG 1/WK FOR 10 WK, Promoter: NONE USED); 9/30 (30%), 6/30 (20%), 33%, not calculated (Carcinogen: DIESEL EXHAUST PARTICLES, Dose [Inhibitor]: 0, 0.02% IN BASAL DIET FOR DURATION OF STUDY (STUDY DURATION: 12 MO), Route [Inhibitor]: ORAL, Species: MOUSE, Strain/Sex: ICR/MALE, Target Tissue: Type of Lesion: LUNG: TUMOR, Dose [Carcinogen]: 0.05 MG 1/WK FOR 10 WK, Promoter: NONE USED). The “tumour outcome (control, treated, inhibition, significance)” value (Carcinogen: DIESEL EXHAUST PARTICLES, Dose [Inhibitor]: 0, 0.02% IN BASAL DIET FOR DURATION OF STUDY (STUDY DURATION: 12 MO), Route [Inhibitor]: ORAL, Species: MOUSE, Strain/Sex: ICR/MALE, Target Tissue: Type of Lesion: LUNG: TUMOR, Dose [Carcinogen]: 0.1 MG 1/WK FOR 10 WK, Promoter: NONE USED) is 9/29 (31%), 10/30 (33%), -6%, not calculated; the “tumour outcome (control, treated, inhibition, significance)” value (Carcinogen: DIESEL EXHAUST PARTICLES, Dose [Inhibitor]: 0, 0.02% IN BASAL DIET FOR DURATION OF STUDY (STUDY DURATION: 12 MO), Route [Inhibitor]: ORAL, Species: MOUSE, Strain/Sex: ICR/MALE, Target Tissue: Type of Lesion: LUNG:TUMOR, Dose [Carcinogen]: 0.2 MG 1/WK FOR 10 WK, Promoter: NONE USED) is reported as 7/29 (24%), 8/30 (27%), -13%, not calculated; the “tumour outcome (control, treated, inhibition, significance)” value (Carcinogen: DIESEL EXHAUST PARTICLES, Dose [Inhibitor]: 0, 0.02% IN BASAL DIET FOR DURATION OF STUDY (STUDY DURATION: 12 MO), Route [Inhibitor]: ORAL, Species: MOUSE, Strain/Sex: ICR/MALE, Target Tissue: Type of Lesion: LYMPHATIC SYSTEM: LYMPHOMA, Dose [Carcinogen]: 0.05 MG 1/WK FOR 10 WK, Promoter: NONE USED) is on record as 3/30 (10%), 4/30 (13%), -30%, not calculated; the “tumour outcome (control, treated, inhibition, significance)” value (Carcinogen: DIESEL EXHAUST PARTICLES, Dose [Inhibitor]: 0, 0.02% IN HIGH FAT DIET FOR DURATION OF STUDY (STUDY DRUATION : 12 MO), Route [Inhibitor]: ORAL, Species: MOUSE, Strain/Sex: ICR/MALE, Target Tissue: Type of Lesion: LYMPHATIC SYSTEM: LYMPHOMA, Dose [Carcinogen]: 0.05 MG 1/WK FOR 10 WK, Promoter: NONE USED) is on record as 5/30 (17%), 5/30 (17%), 0%, not significant; the “tumour outcome (control, treated, inhibition, significance)” value (Carcinogen: DIESEL EXHAUST PARTICLES, Dose [Inhibitor]: 0, 0.02% IN HIGH FAT DIET FOR DURATION OF STUDY (STUDY DURATION: 12 MO), Route [Inhibitor]: ORAL, Species: MOUSE, Strain/Sex: ICR/MALE, Target Tissue: Type of Lesion: LUNG: TUMOR, Dose [Carcinogen]: 0.05 MG 1/WK FOR 10 WK, Promoter: NONE USED) is 12/30 (40%), 9/30 (30%), 25%, not calculated. The outcome (Carcinogen: 7,12-DIMETHYLBENZ[A]ANTHRACENE, 57-97-6, Dose [Inhibitor]: 0, 1430 IU/KG IN 100 µL PEANUT OIL 5 D/WK BEGINNING 1 WK POST CARCINOGEN DOSE AND CONTINUING FOR DURATION OF STUDY (STUD, Route [Inhibitor]: GAVAGE, Species: MOUSE, Strain/Sex: HRA/SKH/FEMALE, Target Tissue: Type of Lesion: SKIN: PAPILLOMA, Dose [Carcinogen]: 10 NMOL IN 50 µL ACETONE ONCE) is on record as 97%, 77%, 21%, not calculated at 20 wk; 68%, 52%, 24%, not calculated at 40 wk.
